Source: US20210251994A1, “INCREASING IMMUNE ACTIVITY THROUGH MODULATION OF POSTCELLULAR SIGNALING FACTORS” (FLAGSHIP PIONEERING INNOVATIONS V, INC., priority 2018, published 2021)
“Also recorded” adds a separate entry of the source.

Tests used:
[1] = system: HT1080 fibrosarcoma cells; assay: Viability of HT1080 fibrosarcoma cells after treatment; type: cell-based; settings: various doses, 24 hours treatment
[2] = system: Caki-1 renal cell carcinoma cells; assay: Viability of Caki-1 renal cell carcinoma cells after treatment; type: cell-based; settings: for viability of Caki-1 cells: various doses, 24 hours treatment
Procedure: Caki-1 renal carcinoma cells were treated with either control (DMSO) or various doses (e.g. 0.002, 0.005, 0.014, 0.041, 0.123, 0.370, 1.111, 3.333 and 10 μM) of a GPX4 inhibitor (RSL3 or ML162) in the presence or absence of 1 μM Ferrostatin for 24 hours prior to co-culture with THP1-Dual cells for an additional 24 hours. […] Caki-1 cells were acquired from ATCC and THP1-Dual cells acquired from InvivoGen (San Diego, Calif.). Both cell types were cultured in 96-well plates for the duration of the assay.

[3] = system: cells overexpressing oncogenic HRAS; settings: engineered human fibroblast cell lines; Dolma et al., 2003; cited from earlier work
NFKB [4] = assay: NFKB reporter activity in THP1-Dual monocytes co-cultured with treated PANC1 cells; type: cell-based, human; settings: PANC1 cells treated 24 hours, then co-culture with THP1-Dual cells 24 hours; versus DMSO
Procedure: (§1) PANC1 pancreatic cancer cells were treated with either control (DMSO) or various doses of Erastin, for 24 hours prior to co-culture with THP1-Dual cells for an additional 24 hours. Erastin was purchased from Selleckchem (Houston, Tex.) and dissolved in DMSO. Subsequently, the THP1 supernatants were assessed for NFKB or IRF reporter activity.
(§2) PANC1 cells were acquired from ATCC and THP1-Dual cells were acquired from InvivoGen (San Diego, Calif.). Both cell types were cultured in 96-well plates for the duration of the assay. 7,500 PANC-1 cells were plated 24 hours prior to dosing with Erastin, with a final DMSO concentration of 0.5%. 24 hours post-treatment, THP1-Dual cells (25,000 cells/well) were added to the PANC-1 cells. 24 hours later, 30 μl of supernatant was mixed with either 200 μl QuantiBlue (InvivoGen, San Diego, Calif.) or 50 μl QuantiLuc and absorbance or luminescence was recorded on a Molecular Devices plate reader.

NFKB [5] = assay: NFKB reporter activity in THP1-Dual monocytes co-cultured with treated Caki-1 cells; type: cell-based, human; settings: for NFKB signaling/activity in THP1 monocytes: Caki-1 cells treated 24 hours, then co-culture with THP1-Dual cells 24 hours, versus DMSO
Procedure: as §1, with “Caki-1 renal cell carcinoma” for “PANC1 pancreatic cancer”
Caki-1 cells were acquired from ATCC and THP1-Dual cells acquired from InvivoGen (San Diego, Calif.). Both cell types were cultured in 96-well plates for the duration of the assay. 7,500 Caki-1 cells were plated 24 hours prior to dosing with Erastin, with a final DMSO concentration of 0.5%. 24 hours post-treatment, THP1-Dual cells (25,000 cells/well) were added to the Caki-1 cells. 24 hours later, 30 μl of supernatant was mixed with either 200 μl QuantiBlue (InvivoGen) or 50 μl QuantiLuc and absorbance or luminescence was recorded on a Molecular Devices plate reader.
as §1, with “Caki-1 renal cell carcinoma” for “PANC1 pancreatic cancer”, “RSL3,” for “Erastin,”, “RSL3” for “Erastin”, “Selleckchem” for “Selleckchem (Houston, Tex.)”
as §2, with “Caki-1 cells were” for “PANC1 cells were”, “THP1-Dual cells acquired from” for “THP1-Dual cells were acquired from”, “assay. 7,500 Caki-1 cells were” for “assay. 7,500 PANC-1 cells were”, “dosing with RSL3, with a” for “dosing with Erastin, with a”, “to the Caki-1 cells. 24” for “to the PANC-1 cells. 24”
Caki-1 renal carcinoma cells were treated with either control (DMSO) or various doses (e.g. 0.002, 0.005, 0.014, 0.041, 0.123, 0.370, 1.111, 3.333 and 10 μM) of a GPX4 inhibitor (RSL3 or ML162) in the presence or absence of 1 μM Ferrostatin for 24 hours prior to co-culture with THP1-Dual cells for an additional 24 hours. Subsequently, the THP1 supernatant was assessed for NFKB reporter activity. Caki-1 cells were acquired from ATCC and THP1-Dual cells acquired from InvivoGen (San Diego, Calif.). Both cell types were cultured in 96-well plates for the duration of the assay.

NFKB [6] = assay: NFKB reporter activity in THP1-Dual monocytes co-cultured with treated HT1080 cells; type: cell-based, human; settings: HT1080 cells treated 24 hours, then co-culture with THP1-Dual cells 24 hours; versus DMSO
Procedure: as §1, with “HT1080 fibrosarcoma” for “PANC1 pancreatic cancer”, “Erastin, piperazine erastin (PE), or imidazole ketoerastin (IKE)” for “Erastin,”, “nuclear factor kappa-light-chain-enhancer of activated B cells (NFKB)” for “NFKB”, “interferon regulatory factor (IRF)” for “IRF”
HT1080 cells were acquired from ATCC and THP1-Dual cells were acquired from InvivoGen (San Diego, Calif.). THP1-Dual cells are human monocyte cells that induce reporter proteins upon activation of either NFKB or IRF pathways. Both cell types were cultured in 96-well plates for the duration of the assay. HT1080 cells were cultured in DMEM with 10% FBS, and THP1-Dual cells were cultured in RPMI with 10% FBS. 7,500 HT1080 cells were plated 24 hours prior to dosing with Erastin, PE, or IKE, with a final DMSO concentration of 0.5%. 24 hours post-treatment, THP1-Dual cells (25,000 cells/well) were added to the HT1080 cells. 24 hours later, 30 μl of supernatant was mixed with either 200 μl QuantiBlue (InvivoGen, San Diego, Calif.) (for NFKB reporter activity) or 50 μl QuantiLuc (for IRF reporter activity) and absorbance or luminescence was recorded on a Molecular Devices plate reader.
HT1080 fibrosarcoma cells were treated with various doses of Erastin (e.g. […], 0.16, 0.31, 0.63, 1.25, 2.5, 5, 10 or 20 μM) alone or in combination with a ferroptosis inhibitor (1 μM Ferrostatin-1, 1 μM Liproxstatin-1, 100 μM Trolox, 25 μM β-Mercaptoethanol or 100 μM Deferoxamine) for 24 hours prior to co-culture with THP1-Dual cells for an additional 24 hours. Ferrostatin-1 and Liproxstatin-1 were purchased from Selleckchem (Houston, Tex.) and dissolved in DMSO. Trolox was purchased from Cayman Chemical Company Inc and resuspended in DMSO. […] Subsequently, the THP1 supernatant was assessed for NFKB activity. […]

[7] = system: PANC1 pancreatic cancer cells; assay: Viability of PANC1 pancreatic cancer cells after treatment; type: cell-based; settings: various doses, 24 hours treatment
A20 lymphoma cells = assay: Viability of A20 B-cell leukemia / lymphoma cells after treatment; type: cell-based; settings: for viability of A20 cells: various doses, 24 hours treatment
NFKB [8] = assay: NFKB reporter activity in THP1-Dual monocytes co-cultured with treated A20 cells; type: cell-based, human; settings: for NFKB signaling/activity in THP1 monocytes: A20 cells treated 24 hours, then co-culture with THP1-Dual cells 24 hours, versus DMSO
Procedure: as §1, with “A20 B-cell leukemia” for “PANC1 pancreatic cancer”, “RSL3,” for “Erastin,”, “RSL3” for “Erastin”
as §2, with “A20 cells were” for “PANC1 cells were”, “THP1-Dual cells acquired from” for “THP1-Dual cells were acquired from”, “the assay. 50,000 A20 cells were” for “the assay. 7,500 PANC-1 cells were”, “dosing with RSL3, with a” for “dosing with Erastin, with a”, “to the A20 cells. 24” for “to the PANC-1 cells. 24”
A20 lymphoma cells were treated with various doses (e.g. 0.002, 0.005, 0.014, 0.041, 0.123, 0.370, 1.111, 3.333 and 10 μM) of a GPX4 inhibitor (RSL3, ML162 or ML210) in the presence or absence of 1 μM Ferrostatin-1 for 24 hours. ML162 was purchased from Cayman Chemical Company Inc and resuspended in DMSO. ML210 was purchased from Sigma-Aldrich and resuspended in DMSO. A20 lymphoma cells were also treated with DMSO as a negative control. After treatment with DMSO or a GPX4 inhibitor for 24 hours, the A20 lymphoma cells were co-cultured with THP1-Dual cells for an additional 24 hours. Subsequently, the THP1 supernatant was assessed for NFKB reporter activity. A20 cells were acquired from ATCC and THP1-Dual cells were acquired from InvivoGen (San Diego, Calif.). Both cell types were cultured in 96-well plates for the duration of the assay.

Structure (SMILES) | viability of HT1080 cells [1] | viability of Caki-1 cells [2] | NFKB signaling/activity in THP1 monocytes (NFKB [5]) | NFKB signaling/activity in THP1 monocytes (NFKB [6]) | viability of A20 cells (A20 lymphoma cells) | NFKB signaling/activity in THP1 monocytes (NFKB [8]) | other results
CCOc1ccccc1-n1c(C(C)N2CCN(C(=O)COc3ccc(Cl)cc3)CC2)nc2ccccc2c1=O (stereo not drawn) [Erastin, erastin] | negatively affected the viability; also recorded: decreased viability of the cells in a dose dependent manner | negatively affected the viability | elicited NFKB signaling | elicited NFKB signaling; also recorded: increased NFKB activity in THP1 cells in a dose dependent manner | – | – | lethality in cells overexpressing oncogenic HRAS [3]: induce preferential lethality; NFKB signaling in THP1 monocytes (NFKB [4]): elicited NFKB signaling; viability of PANC1 cells [7]: negatively affected the viability
CCOC(=O)c1ccc(NC2CCCCC2)c(N)c1 [Ferrostatin-1] | – | – | – | – | – | – | effect on GPX4 inhibitor-decreased viability of Caki-1 renal carcinoma cells ([2]; 1 μM Ferrostatin-1 together with RSL3 or ML162, 24 hours): attenuated; effect on GPX4 inhibitor-decreased viability of A20 lymphoma cells (A20 lymphoma cells; 1 μM Ferrostatin-1 together with RSL3, ML162 or ML210, 24 hours): attenuated; effect on GPX4 inhibitor-increased NFKB activity in THP1 cells (NFKB [8]; A20 cells, 1 μM Ferrostatin-1 together with RSL3, ML162 or ML210, then THP1-Dual co-culture 24 hours): attenuated; effect on GPX4 inhibitor-increased NFKB activity in THP1 cells (NFKB [5]; Caki-1 cells, 1 μM Ferrostatin-1 together with RSL3 or ML162, then THP1-Dual co-culture 24 hours): attenuated
CC(C)Oc1ccc(C(=O)Cn2ccnc2)cc1-n1c(CN2CCN(C(=O)COc3ccc(Cl)cc3)CC2)nc2ccccc2c1=O [IKE, imidazole ketoerastin] | negatively affected the viability | – | – | elicited NFKB signaling | – | – | –
COc1ccc(N(C(=O)CCl)C(C(=O)NCCc2ccccc2)c2cccs2)cc1Cl (stereo not drawn) [ML162] | – | decreased viability of the cells in a dose dependent manner | increased NFKB activity in THP1 cells in a dose dependent manner | – | decreased viability of the cells in a dose dependent manner | increased NFKB activity in THP1 cells in a dose dependent manner | –
Cc1onc(C(=O)N2CCN(C(c3ccc(Cl)cc3)c3ccc(Cl)cc3)CC2)c1[N+](=O)[O-] [ML210] | – | – | – | – | decreased viability of the cells in a dose dependent manner | increased NFKB activity in THP1 cells in a dose dependent manner | –
CC(C)Oc1ccc(CN2CCNCC2)cc1-n1c(CN2CCN(C(=O)COc3ccc(Cl)cc3)CC2)nc2ccccc2c1=O [PE, piperazine erastin] | negatively affected the viability | – | – | elicited NFKB signaling | – | – | –
